Assay results published in ChEMBL document CHEMBL4330132, “5-Keto-3-cyano-2,4-diaminothiophenes as selective maternal embryonic leucine zipper kinase inhibitors” (Bioorg Med Chem Lett, 2019).

Tests used:
[1] = test system: Tyrosine-protein kinase ABL1 (Homo sapiens), P00519 [F317I]; test: Binding affinity to human non-phosphorylated ABL1 F317I mutant (S229 to K512 residues) expressed in mammalian expression system assessed as residual binding level at 1 uM by Kinomescan method relative to control
[2] = test system: Tyrosine-protein kinase ABL1 (Homo sapiens), P00519 [F317L]; test: Binding affinity to human non-phosphorylated ABL1 F317L mutant (S229 to K512 residues) expressed in mammalian expression system assessed as residual binding level at 1 uM by Kinomescan method relative to control
[3] = biological target: Activin receptor type-2A (Homo sapiens) (UniProt P27037); test: Binding affinity to wild-type human ACVR2A (V171 to T499 residues) expressed in bacterial expression system assessed as residual binding level at 1 uM by Kinomescan method relative to control
[4] = biological target: Serine/threonine-protein kinase DCLK3 (Homo sapiens) (UniProt Q9C098); test: Binding affinity to wild-type human partial length DCAMKL3 (E140 to V628 residues) expressed in bacterial expression system assessed as residual binding level at 1 uM by Kinomescan method relative to control
[5] = test system: Epidermal growth factor receptor (Homo sapiens), P00533 [UNDEFINED MUTATION]; test: Binding affinity to human partial length EGFR E746-A750del mutant expressed in bacterial expression system assessed as residual binding level at 1 uM by Kinomescan method relative to control
[6] = biological target: Ephrin type-A receptor 2 (Homo sapiens) (UniProt P29317); test: Binding affinity to wild-type human partial length EPHA2 (T593 to V891 residues) expressed in bacterial expression system assessed as residual binding level at 1 uM by Kinomescan method relative to control
[7] = biological target: Fibroblast growth factor receptor 4 (Homo sapiens) (UniProt P22455); test: Binding affinity to wild-type human partial length FGFR4 (G402 to E713 residues) expressed in bacterial expression system assessed as residual binding level at 1 uM by Kinomescan method relative to control
[8] = biological target: Cyclin-G-associated kinase (Homo sapiens) (UniProt O14976); test: Binding affinity to wild-type human partial length GAK (G13 to Y338 residues) expressed in bacterial expression system assessed as residual binding level at 1 uM by Kinomescan method relative to control
[9] = biological target: Rhodopsin kinase GRK7 (Homo sapiens) (UniProt Q8WTQ7); test: Binding affinity to wild-type human full length GRK7 (M1 to L553 residues) expressed in mammalian expression system assessed as residual binding level at 1 uM by Kinomescan method relative to control
[10] = biological target: Tyrosine-protein kinase Lyn (Homo sapiens) (UniProt P07948); test: Binding affinity to wild-type human partial length LYN (C219 to Q511 residues) expressed in bacterial expression system assessed as residual binding level at 1 uM by Kinomescan method relative to control
[11] = biological target: Mitogen-activated protein kinase kinase kinase 1 (Homo sapiens) (UniProt Q13233); test: Binding affinity to wild-type human partial length MAP3K1 (L1202 to W1512 residues) expressed in mammalian expression system assessed as residual binding level at 1 uM by Kinomescan method relative to control
[12] = biological target: Mitogen-activated protein kinase kinase kinase kinase 5 (Homo sapiens) (UniProt Q9Y4K4); test: Binding affinity to wild-type human partial length MAP4K5 (M1 to P297 residues) expressed in bacterial expression system assessed as residual binding level at 1 uM by Kinomescan method relative to control
[13] = biological target: MAP kinase-interacting serine/threonine-protein kinase 1 (Homo sapiens) (UniProt Q9BUB5); test: Binding affinity to wild-type human full length MKNK1 (M1 to L424 residues) expressed in mammalian expression system assessed as residual binding level at 1 uM by Kinomescan method relative to control
[14] = biological target: Serine/threonine-protein kinase 38 (Homo sapiens) (UniProt Q15208); test: Binding affinity to wild-type human partial length NDR1 (N33 to E449 residues) expressed in mammalian expression system assessed as residual binding level at 1 uM by Kinomescan method relative to control
[15] = biological target: Serine/threonine-protein kinase PAK 3 (Homo sapiens) (UniProt O75914); test: Binding affinity to wild-type human full length PAK3 (M1 to R544 residues) expressed in bacterial expression system assessed as residual binding level at 1 uM by Kinomescan method relative to control
[16] = biological target: Platelet-derived growth factor receptor beta (Homo sapiens) (UniProt P09619); test: Binding affinity to wild-type human partial length PDGFRB (V582 to Y1009 residues) expressed in bacterial expression system assessed as residual binding level at 1 uM by Kinomescan method relative to control
[17] = biological target: Cyclin-dependent kinase 15 (Homo sapiens) (UniProt Q96Q40); test: Binding affinity to wild-type human full length PFTAIRE2 (M1 to W384 residues) expressed in bacterial expression system assessed as residual binding level at 1 uM by Kinomescan method relative to control
[18] = biological target: Phosphorylase b kinase gamma catalytic chain, skeletal muscle/heart isoform (Homo sapiens) (UniProt Q16816); test: Binding affinity to wild-type human full length PHKG1 (M1 to Y387 residues) expressed in bacterial expression system assessed as residual binding level at 1 uM by Kinomescan method relative to control
[19] = biological target: Serine/threonine-protein kinase PLK2 (Homo sapiens) (UniProt Q9NYY3); test: Binding affinity to wild-type human partial length PLK2 (H58 to F354 residues) expressed in mammalian expression system assessed as residual binding level at 1 uM by Kinomescan method relative to control
[20] = biological target: Protein kinase C iota type (Homo sapiens) (UniProt P41743); test: Binding affinity to wild-type human partial length PRKCI (H215 to V587 residues) expressed in mammalian expression system assessed as residual binding level at 1 uM by Kinomescan method relative to control
[21] = biological target: Receptor-interacting serine/threonine-protein kinase 2 (Homo sapiens) (UniProt O43353); test: Binding affinity to wild-type human partial length RIPK2 (M1 to K310 residues) expressed in bacterial expression system assessed as residual binding level at 1 uM by Kinomescan method relative to control
[22] = biological target: SRSF protein kinase 3 (Homo sapiens) (UniProt Q9UPE1); test: Binding affinity to wild-type human partial length SRPK3 (P41 to P567 residues) expressed in bacterial expression system assessed as residual binding level at 1 uM by Kinomescan method relative to control
[23] = biological target: Serine/threonine-protein kinase TBK1 (Homo sapiens) (UniProt Q9UHD2); test: Binding affinity to wild-type human full length TBK1 (M1 to L729 residues) expressed in mammalian expression system assessed as residual binding level at 1 uM by Kinomescan method relative to control
[24] = biological target: Tyrosine-protein kinase receptor Tie-1 (Homo sapiens) (UniProt P35590); test: Binding affinity to wild-type human partial length TIE1 (T819 to A1138 residues) expressed in bacterial expression system assessed as residual binding level at 1 uM by Kinomescan method relative to control

Tyrosine-protein kinase ABL1 (Homo sapiens), P00519 [F317L], sequence (P00519 whole entry F317L, the tested form may be a part): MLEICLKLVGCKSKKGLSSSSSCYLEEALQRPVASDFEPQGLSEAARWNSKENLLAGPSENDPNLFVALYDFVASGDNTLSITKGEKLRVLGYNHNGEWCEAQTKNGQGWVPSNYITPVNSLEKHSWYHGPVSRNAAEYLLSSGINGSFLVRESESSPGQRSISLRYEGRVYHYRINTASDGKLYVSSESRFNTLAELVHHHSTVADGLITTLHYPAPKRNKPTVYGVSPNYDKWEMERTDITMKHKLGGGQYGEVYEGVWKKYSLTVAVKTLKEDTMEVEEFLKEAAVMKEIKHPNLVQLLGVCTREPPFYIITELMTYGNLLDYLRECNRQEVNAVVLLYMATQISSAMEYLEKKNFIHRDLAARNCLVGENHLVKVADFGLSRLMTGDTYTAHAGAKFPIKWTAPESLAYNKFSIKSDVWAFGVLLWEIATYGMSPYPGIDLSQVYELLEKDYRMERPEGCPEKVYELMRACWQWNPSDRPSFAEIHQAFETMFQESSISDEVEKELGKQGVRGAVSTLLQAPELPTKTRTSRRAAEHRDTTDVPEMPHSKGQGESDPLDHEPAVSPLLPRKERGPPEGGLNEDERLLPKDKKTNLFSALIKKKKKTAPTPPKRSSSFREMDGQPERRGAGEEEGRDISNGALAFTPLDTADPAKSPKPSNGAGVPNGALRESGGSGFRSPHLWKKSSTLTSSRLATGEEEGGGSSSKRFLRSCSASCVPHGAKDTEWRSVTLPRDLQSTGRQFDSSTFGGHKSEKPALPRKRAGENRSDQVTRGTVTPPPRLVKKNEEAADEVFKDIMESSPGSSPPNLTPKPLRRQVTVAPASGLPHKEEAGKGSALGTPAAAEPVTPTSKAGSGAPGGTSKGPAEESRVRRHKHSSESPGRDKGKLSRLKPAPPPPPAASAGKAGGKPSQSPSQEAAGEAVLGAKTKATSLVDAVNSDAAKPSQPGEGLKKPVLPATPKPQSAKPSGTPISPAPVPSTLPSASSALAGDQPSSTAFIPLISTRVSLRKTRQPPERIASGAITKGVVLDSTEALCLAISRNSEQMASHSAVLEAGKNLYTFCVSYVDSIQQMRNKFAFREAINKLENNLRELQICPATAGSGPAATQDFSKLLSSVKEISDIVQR
Receptor-interacting serine/threonine-protein kinase 2 (Homo sapiens), sequence (O43353 whole entry, the tested form may be a part): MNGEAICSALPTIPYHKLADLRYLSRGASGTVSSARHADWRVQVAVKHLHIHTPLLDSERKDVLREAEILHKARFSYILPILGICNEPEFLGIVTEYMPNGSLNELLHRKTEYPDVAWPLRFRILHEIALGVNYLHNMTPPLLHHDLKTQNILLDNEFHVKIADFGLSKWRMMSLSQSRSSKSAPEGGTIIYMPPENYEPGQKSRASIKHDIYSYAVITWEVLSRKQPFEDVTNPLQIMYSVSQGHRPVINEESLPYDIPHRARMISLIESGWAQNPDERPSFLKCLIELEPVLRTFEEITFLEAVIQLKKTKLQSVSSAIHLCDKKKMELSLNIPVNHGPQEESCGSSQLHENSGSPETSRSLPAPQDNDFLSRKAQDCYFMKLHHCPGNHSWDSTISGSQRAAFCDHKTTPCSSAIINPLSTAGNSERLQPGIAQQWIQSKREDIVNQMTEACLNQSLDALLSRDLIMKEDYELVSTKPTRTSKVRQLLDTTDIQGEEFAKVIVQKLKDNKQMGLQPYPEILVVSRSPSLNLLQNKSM
Mitogen-activated protein kinase kinase kinase 1 (Homo sapiens), sequence (Q13233 whole entry, the tested form may be a part): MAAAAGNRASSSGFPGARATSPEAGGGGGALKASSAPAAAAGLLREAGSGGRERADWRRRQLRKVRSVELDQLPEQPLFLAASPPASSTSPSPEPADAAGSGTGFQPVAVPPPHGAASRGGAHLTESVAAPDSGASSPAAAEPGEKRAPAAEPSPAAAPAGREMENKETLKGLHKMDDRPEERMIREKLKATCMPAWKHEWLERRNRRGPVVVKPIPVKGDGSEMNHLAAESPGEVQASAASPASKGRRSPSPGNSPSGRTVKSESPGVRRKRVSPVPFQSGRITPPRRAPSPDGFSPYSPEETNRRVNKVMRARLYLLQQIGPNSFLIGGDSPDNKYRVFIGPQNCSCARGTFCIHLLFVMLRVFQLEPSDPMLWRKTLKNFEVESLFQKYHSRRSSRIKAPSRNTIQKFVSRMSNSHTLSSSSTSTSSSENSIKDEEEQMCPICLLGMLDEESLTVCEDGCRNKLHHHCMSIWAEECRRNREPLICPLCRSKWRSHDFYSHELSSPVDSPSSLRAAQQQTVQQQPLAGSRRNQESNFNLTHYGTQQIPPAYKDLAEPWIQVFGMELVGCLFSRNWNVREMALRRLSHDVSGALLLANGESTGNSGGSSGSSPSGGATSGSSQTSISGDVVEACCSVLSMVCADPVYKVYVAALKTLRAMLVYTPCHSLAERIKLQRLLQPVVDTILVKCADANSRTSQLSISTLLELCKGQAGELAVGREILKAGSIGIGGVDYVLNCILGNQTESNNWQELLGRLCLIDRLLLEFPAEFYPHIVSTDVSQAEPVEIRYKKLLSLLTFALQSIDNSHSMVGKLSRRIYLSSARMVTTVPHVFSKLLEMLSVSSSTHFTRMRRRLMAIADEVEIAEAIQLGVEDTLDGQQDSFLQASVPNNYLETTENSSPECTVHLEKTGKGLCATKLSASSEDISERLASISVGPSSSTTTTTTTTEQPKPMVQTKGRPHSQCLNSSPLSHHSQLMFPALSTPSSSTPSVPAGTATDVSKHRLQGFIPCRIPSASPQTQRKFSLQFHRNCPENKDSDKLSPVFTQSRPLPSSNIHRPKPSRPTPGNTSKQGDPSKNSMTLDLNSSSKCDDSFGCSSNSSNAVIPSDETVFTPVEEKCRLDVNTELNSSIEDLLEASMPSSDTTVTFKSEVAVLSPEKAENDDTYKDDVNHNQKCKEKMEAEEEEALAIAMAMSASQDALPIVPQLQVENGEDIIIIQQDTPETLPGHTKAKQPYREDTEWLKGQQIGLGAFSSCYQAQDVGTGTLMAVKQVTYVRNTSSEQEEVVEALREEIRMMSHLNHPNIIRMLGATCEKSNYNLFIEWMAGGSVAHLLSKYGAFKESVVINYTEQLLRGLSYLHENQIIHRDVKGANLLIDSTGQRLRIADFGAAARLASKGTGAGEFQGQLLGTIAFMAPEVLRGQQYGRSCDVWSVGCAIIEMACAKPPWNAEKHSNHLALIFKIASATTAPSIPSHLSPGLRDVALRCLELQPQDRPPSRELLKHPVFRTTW
Serine/threonine-protein kinase PAK 3 (Homo sapiens), sequence (O75914 whole entry, looked up, the tested form may be a part): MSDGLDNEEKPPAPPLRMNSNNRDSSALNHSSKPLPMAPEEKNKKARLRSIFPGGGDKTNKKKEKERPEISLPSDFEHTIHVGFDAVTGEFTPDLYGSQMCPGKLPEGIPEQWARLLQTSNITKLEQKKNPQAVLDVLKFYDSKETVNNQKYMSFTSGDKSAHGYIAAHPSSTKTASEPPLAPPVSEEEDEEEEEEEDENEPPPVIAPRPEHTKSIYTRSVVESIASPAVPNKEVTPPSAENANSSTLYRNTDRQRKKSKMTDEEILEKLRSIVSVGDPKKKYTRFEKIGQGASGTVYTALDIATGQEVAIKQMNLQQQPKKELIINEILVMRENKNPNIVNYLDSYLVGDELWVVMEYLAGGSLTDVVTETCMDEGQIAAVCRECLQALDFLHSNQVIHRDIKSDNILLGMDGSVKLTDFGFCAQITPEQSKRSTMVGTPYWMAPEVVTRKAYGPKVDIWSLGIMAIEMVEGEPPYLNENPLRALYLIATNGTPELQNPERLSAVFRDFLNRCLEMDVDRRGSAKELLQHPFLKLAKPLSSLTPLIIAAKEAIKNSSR
SRSF protein kinase 3 (Homo sapiens), sequence (Q9UPE1 whole entry, the tested form may be a part): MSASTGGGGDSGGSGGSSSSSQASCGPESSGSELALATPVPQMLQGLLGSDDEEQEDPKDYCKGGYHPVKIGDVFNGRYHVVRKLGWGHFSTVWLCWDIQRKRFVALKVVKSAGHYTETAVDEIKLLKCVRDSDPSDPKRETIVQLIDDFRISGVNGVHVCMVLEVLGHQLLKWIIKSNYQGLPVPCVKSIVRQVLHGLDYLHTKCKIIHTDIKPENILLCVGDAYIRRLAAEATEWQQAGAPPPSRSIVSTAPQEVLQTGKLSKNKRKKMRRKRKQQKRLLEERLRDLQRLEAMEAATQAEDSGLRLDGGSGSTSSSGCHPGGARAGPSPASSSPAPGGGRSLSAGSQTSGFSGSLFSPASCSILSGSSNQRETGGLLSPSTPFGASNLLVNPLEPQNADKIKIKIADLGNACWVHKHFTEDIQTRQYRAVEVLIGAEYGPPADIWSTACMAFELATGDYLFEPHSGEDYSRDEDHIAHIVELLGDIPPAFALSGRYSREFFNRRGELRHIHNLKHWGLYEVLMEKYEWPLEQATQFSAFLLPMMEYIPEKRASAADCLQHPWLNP
Serine/threonine-protein kinase 38 (Homo sapiens), sequence (Q15208 2-465 limits assumed): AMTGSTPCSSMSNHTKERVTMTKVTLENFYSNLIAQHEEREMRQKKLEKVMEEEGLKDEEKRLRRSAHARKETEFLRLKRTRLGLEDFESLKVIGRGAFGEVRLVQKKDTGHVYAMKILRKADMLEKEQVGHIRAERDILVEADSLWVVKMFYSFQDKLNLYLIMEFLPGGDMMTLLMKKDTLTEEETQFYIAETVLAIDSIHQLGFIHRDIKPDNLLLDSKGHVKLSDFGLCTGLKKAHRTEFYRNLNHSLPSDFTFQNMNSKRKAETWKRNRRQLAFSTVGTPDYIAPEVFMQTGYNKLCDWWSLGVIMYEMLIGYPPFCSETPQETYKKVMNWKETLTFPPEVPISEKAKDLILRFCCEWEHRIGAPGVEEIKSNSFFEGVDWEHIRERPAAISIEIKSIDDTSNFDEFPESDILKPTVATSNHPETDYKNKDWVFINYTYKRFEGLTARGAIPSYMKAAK
Tyrosine-protein kinase ABL1 (Homo sapiens), P00519 [F317I], sequence (P00519 whole entry F317I, the tested form may be a part): as the sequence (P00519 whole entry F317L, the tested form may be a part) above, with L317I counted along it

Structure (SMILES): CC(C)Nc1sc(C(=O)c2ccc(Cl)s2)c(N)c1C#N
- Activity [1]: 100%
- Activity [2]: 100%
- Activity [3]: 62%
- Activity [4]: 100%
- Activity [5]: 93%
- Activity [6]: 100%
- Activity [7]: 74%
- Activity [8]: 24%
- Activity [9]: 95%
- Activity [10]: 80%
- Activity [11]: 100%
- Activity [12]: 78%
- Activity [13]: 100%
- Activity [14]: 74%
- Activity [15]: 95%
- Activity [16]: 54%
- Activity [17]: 79%
- Activity [18]: 89%
- Activity [19]: 67%
- Activity [20]: 100%
- Activity [21]: 82%
- Activity [22]: 96%
- Activity [23]: 97%
- Activity [24]: 69%
